# Measured values from patent US12702657B2, “Treatment and prevention of dengue disease” (Janssen Pharmaceuticals, Inc., priority 2019, dated 2026).
# Assays:
# DENV-2/Rega lab strain [1] = experiment: AG129 mouse viremia model, high viral input (10^6 PFU), pre-exposure prophylaxis; format: in vivo, AG129 mice; conditions: day 3 p.i.; for viral load reduction in serum / median viral load reduction in serum: 10^6 PFU, vs vehicle
# Text: The AG129 mouse model is a well-established model to study the antiviral effect of compounds against DENV in vivo (Zompi and Harris, 2012). These 129/Sv mice are deficient for both IFN-α/β and IFN-γ receptors, enabling peripheral viral replication upon intravenous (i.v.) or subcutaneous (s.c.) infection with DENV (Johnson and Roehrig, 1999). […]
# Total RNA from serum was extracted using the NucleoSpin RNA virus kit according to the manufacturer's protocol (Macherey-Nagel, Düren, Germany). The viral RNA load was determined by one-step TaqMan RT-qPCR (master mix from Eurogentec, Seraing, Belgium). […]
# In a similar setup as for the b.i.d. dosing studies, the in vivo efficacy was studied in the AG129 standard viremia model against DENV-2 with high viral inoculum and with compound (a) q.d. administration. Animals were i.p. infected with 10^6 PFU DENV-2/Rega lab strain in a volume of 200 μL. Animals were treated by administering compound (a) by oral gavage with a first administration at one hour prior to infection. The treatment continued for three consecutive days with one administration of compound (a) every 24 hours (once a day or q.d.). At day 3 post infection (p.i.), the mice were euthanized, and blood was collected (FIG. 3). The viral RNA load was determined as outlined in example 1.
# The mice were divided in 5 groups (n=8/group) representing the following treatment regimens: • (i) Vehicle 80%/20% PEG400/H2O, • (ii) reference compound (2′CMC, 50 mg/kg per dose, b.i.d., s.c.), • (iii) compound (a): 0.3 mg/kg/dose q.d. • (iv) compound (a): 3 mg/kg/dose q.d. • (v) compound (a): 30 mg/kg/dose q.d. […]
# The mice were divided in several groups (n=8/group for the viremia study and n=10/group for the survival study) representing the following treatment regimens: • (i) vehicle, 80%/20% PEG400/H2O • (ii) compound (b): 30 mg/kg/dose b.i.d. • (iii) compound (b): 10 mg/kg/dose b.i.d. • (iv) compound (b): 3 mg/kg/dose b.i.d. • (v) compound (b): 1 mg/kg/dose b.i.d.
# DENV-2/Rega lab strain [2] = experiment: AG129 mouse viremia model, low viral input (10^2 PFU), viral load kinetics, pre-exposure prophylaxis; format: in vivo, AG129 mice; conditions: for median serum viral load over all 11 days: LOD=2.59 log10 copies/mL
# Procedure: In this experiment, lower viral inputs were used (10^2 PFU), compared with the standard viremia experiments with a high viral input (10^6 PFU). 10^2 PFU was selected as it was the lowest viral load leading to a Dengue infection in the mouse model. Using a lower viral input still results in 100% infection of the mice, but the peak viral load is postponed with 1 to 2 days, which more closely mimics a natural human infection (Clapham et al., 2014 and Sim et al., 2015). The mice were treated during 6 consecutive days.
# Animals were infected i.p. with 10^2 PFU DENV-2/Rega lab strain and treated for six consecutive days twice daily with compound (a) by oral gavage (FIG. 5).
# The mice were divided in four treatment groups (n=16/group) representing the following treatment regimens: • (i) Vehicle 80%/20% PEG400/H2O, • (ii) compound (a): 10 mg/kg/dose b.i.d. p.o. • (iii) compound (a): 1 mg/kg/dose b.i.d. p.o. • (iv) compound (a): 0.1 mg/kg/dose b.i.d. p.o.
# Daily blood samples were collected to follow the viral load over time. Blood collection, for viral RNA load detection, was performed in two alternating sub-groups of mice. Each sub-group comprised half of the mice (n/2=8) from each of the treatment groups (i) to (iv). Blood was collected from a first sub-group at day 1, 3, 5 and 8 p.i. and from a second sub-group at day 2, 4, 6 and 11 p.i. At day 8 p.i., mice of the first sub-group were sacrificed while those of the second sub-group were sacrificed at day 11 p.i. […]
# Alternating sub-groups were used to enable daily blood collections. Blood for viral RNA load detection was collected from mice in two alternating sub-groups. Each sub-group comprised half of the mice (n/2=8) from each of the treatment groups (i-vi). Blood was collected from a first sub-group at days 1, 3, 5 and 8 p.i. and from a second sub-group at days 2, 4, 6 and 11 p.i. Blood collection was always performed just before the next administration of the compound. At day 8 p.i., half of the mice in each treatment group (n=8/group) were sacrificed. The remaining mice in each treatment group (n=8/group) were sacrificed at day 11 p.i (FIG. 16 Y).
structure (smiles),measurement,setting,value
COc1cc(NC(C(=O)N2CCc3ccc(OC(F)(F)F)cc32)c2ccc(Cl)cc2)cc(OCCCC(=O)O)c1 (stereo not drawn) [compound (b)],viral load reduction in serum,DENV-2/Rega lab strain [1]; compound (b) 1 mg/kg per dose b.i.d. p.o.,0.70 log10 copies/mL
same,viral load reduction in serum,DENV-2/Rega lab strain [1]; compound (b) 30 mg/kg per dose b.i.d. p.o.,3.8 log10 copies/mL
same,"viral load reduction compared with the vehicle-treated group, significance","DENV-2/Rega lab strain [1]; compound (b), all four doses (1, 3, 10, 30 mg/kg per dose b.i.d.), p<0.05",significant viral load reduction
same,reduction of viral RNA levels at peak viremia,"DENV-2/Rega lab strain [2]; compound (b) 0.3 mg/kg b.i.d. p.o., 10^2 PFU",0.8 log10
same,reduction of viral RNA levels at peak viremia,"DENV-2/Rega lab strain [2]; compound (b) 1 mg/kg b.i.d. p.o., 10^2 PFU",1.8 log10
same,viral RNA levels in serum,"DENV-2/Rega lab strain [2]; compound (b) 3 mg/kg/dose b.i.d. p.o., 6 days, 10^2 PFU",undetectable levels
same,viral RNA levels in serum,"DENV-2/Rega lab strain [2]; compound (b) 10 mg/kg/dose b.i.d. p.o., 6 days, 10^2 PFU",undetectable levels
same,viral RNA levels in serum,"DENV-2/Rega lab strain [2]; compound (b) 30 mg/kg/dose b.i.d. p.o., 6 days, 10^2 PFU",undetectable levels
COc1cc(NC(C(=O)c2c[nH]c3ccc(OC(F)(F)F)cc23)c2ccc(Cl)cc2OC)cc(S(C)(=O)=O)c1 (stereo not drawn) [compound (a)],viral load reduction in serum,DENV-2/Rega lab strain [1]; 0.1 mg/kg/dose b.i.d. p.o.,0.47 log10 copies/mL
same,median viral load reduction in serum,DENV-2/Rega lab strain [1]; 0.3 mg/kg/dose q.d. p.o.,0.7 log10 copies/mL
same,median viral load reduction in serum,DENV-2/Rega lab strain [1]; 3 mg/kg/dose q.d. p.o.,3.1 log10 copies/mL
same,viral load reduction in serum,DENV-2/Rega lab strain [1]; 30 mg/kg/dose b.i.d. p.o.,4.4 log10 copies/mL
same,median viral load reduction in serum,DENV-2/Rega lab strain [1]; 30 mg/kg/dose q.d. p.o.,4.5 log10 copies/mL
same,"viral load reduction in serum compared with the vehicle-treated group, significance","DENV-2/Rega lab strain [1]; all doses except 0.1 (0.3, 1, 3, 10, 30 mg/kg/dose b.i.d.), p<0.001",significant viral load reduction
same,delay of peak viral load versus vehicle,"DENV-2/Rega lab strain [2]; 0.1 mg/kg/dose b.i.d. p.o., 6 days, 10^2 PFU",~ 1 day
same,viral load reduction compared with vehicle,"DENV-2/Rega lab strain [2]; 0.1 mg/kg/dose b.i.d. p.o., day 5, 10^2 PFU",0.50 log10 copies/mL
same,viral load over time,"DENV-2/Rega lab strain [2]; 0.1 mg/kg/dose q.d. p.o., 10^2 PFU",comparable to the vehicle-treated viral load curve
same,viral load reduction compared to vehicle-treated mice,"DENV-2/Rega lab strain [2]; 0.3 mg/kg/dose q.d. p.o., day 5, 10^2 PFU",1.6 log10 copies/mL
same,course of viral load after day 5,"DENV-2/Rega lab strain [2]; 0.3 mg/kg/dose q.d. p.o., up to day 11, 10^2 PFU",no further decline in viral load up to day 11
same,median serum viral load over all 11 days,"DENV-2/Rega lab strain [2]; 0.6 mg/kg/dose q.d. p.o., 6 days, 10^2 PFU",undetectable levels
same,viral load in the mice over all the days,"DENV-2/Rega lab strain [2]; 1 mg/kg/dose b.i.d. p.o., 6 days, 10^2 PFU",undetectable levels
same,median serum viral load over all 11 days,"DENV-2/Rega lab strain [2]; 1 mg/kg/dose q.d. p.o., 6 days, 10^2 PFU, 1 viral rebound at day 8",undetectable levels
same,median viral load at viral rebound,"DENV-2/Rega lab strain [2]; 1 mg/kg/dose q.d. p.o., day 8, 10^2 PFU",3.78 log10 copies/mL
same,median serum viral load over all 11 days,"DENV-2/Rega lab strain [2]; 3 mg/kg/dose q.d. p.o., 6 days, 10^2 PFU",undetectable levels
same,viral load in the mice over all the days,"DENV-2/Rega lab strain [2]; 10 mg/kg/dose b.i.d. p.o., 6 days, 10^2 PFU",undetectable levels
same,median serum viral load over all 11 days,"DENV-2/Rega lab strain [2]; 10 mg/kg/dose q.d. p.o., 6 days, 10^2 PFU",undetectable levels
same,median serum viral load over all 11 days,"DENV-2/Rega lab strain [2]; 30 mg/kg/dose q.d. p.o., 6 days, 10^2 PFU",undetectable levels
